Here are results for 23 compounds from patent publication US11840528B2 (Hoffmann-La Roche Inc., priority 2018, dated 2023).

For orientation: Ki means the equilibrium dissociation constant of an inhibitor or competing ligand from its target.

Experiment [1] addresses T1, h-GABA-A α5β3γ2 (Homo sapiens, UniProt P18507+P31644). Kind of experiment: [3H]flumazenil competition binding assay, membranes of HEK293 cells expressing GABAA receptors. Particulars: displacement of [3H]-Flumazenil 0.5 nM, HEK293 cells expressing human receptors, mean of two determinations; Table 1. An outline of the steps:
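Receptor source: human α5β3γ2 transiently transfected into HEK293 cells, membranes in pH 7.5 Krebs-tris. Filtration through GF/C, then scintillation counting.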

Experiment [2] addresses T1, h-GABA-A α5β3γ2. Kind of experiment: Two-electrode voltage clamp electrophysiology in Xenopus laevis oocytes expressing GABAA receptors, modulation of GABA EC20 current. It counts as cell-based. On the set-up: host or cells: Xenopus laevis oocytes micro-injected with RNA transcripts of the subunits. As to conditions: Table 1; for Efficacy (GABA) %: % modulation of GABA EC20 = 100*(Fold increase-1); for Fold increase h-GABA-A α5β3γ2 oocyte: test compound at approx. 30 fold its Ki, GABA at EC20. An outline of the steps: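 Modulation is reported as % of the GABA EC20 current, calculated as 100*(Fold increase−1) from the peak ratio between a second GABA response carrying compound (applied at roughly 30-fold Ki) and a preceding control response. Oocytes expressing human α5β3γ2 were clamped at −80 mV at room temperature, 3–5 days after injection.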

The compound `Cc1ccc(-c2noc(C)c2Cn2ncc(N3CC(Oc4ccc(C)nn4)C3)cc2=O)cn1` [Example 186, 2-[[5-methyl-3-(6-methyl-3-pyridyl)isoxazol-4-yl]methyl]-5-[3-(6-methylpyridazin-3-yl)oxyazetidin-1-yl]pyridazin-3-one] had an inhibitory constant (Ki) on h-GABA-A α5β3γ2 [1] of 37.4 nM. At h-GABA-A α5β3γ2 [2], the “Efficacy (GABA) %” value is recorded as 160% and the “Fold increase h-GABA-A α5β3γ2 oocyte” value is recorded as 2.6.
For `Cc1onc(-c2ccc(Cl)nc2)c1Cn1ncc(N2CCC3(CCCO3)CC2)cc1=O` [Example 256, 2-((3-(6-chloropyridin-3-yl)-5-methylisoxazol-4-yl)methyl)-5-(1-oxa-8-azaspiro[4.5]decan-8-yl)pyridazin-3(2H)-one] the same measures were 45.4 nM, 126% and 2.26.
In the same order, the values of `Cc1ccc(-c2noc(C)c2Cn2ncc(N3CC4(C[C@@H](O)CO4)C3)cc2=O)cn1` [Example 132, 5-[(7R)-7-hydroxy-5-oxa-2-azaspiro[3.4]octan-2-yl]-2-[[5-methyl-3-(6-methyl-3-pyridyl)isoxazol-4-yl]methyl]pyridazin-3-one] are 19.5 nM, 119% and 2.19.
For `Cc1ccc(-c2noc(C)c2Cn2ncc(N3CC(Oc4cccnc4)C3)cc2=O)cn1` [Example 126, 2-[[5-methyl-3-(6-methyl-3-pyridyl)isoxazol-4-yl]methyl]-5-[3-(3-pyridyloxy)azetidin-1-yl]pyridazin-3-one] the same measures were 9.4 nM, 134% and 2.34.
Compound `Cc1ccc(-c2noc(C)c2Cn2ncc(-c3cnn(C4CC4)c3)cc2=O)cn1` [Example 152, 5-(1-cyclopropyl-1H-pyrazol-4-yl)-2-((5-methyl-3-(6-methylpyridin-3-yl)isoxazol-4-yl)methyl)pyridazin-3(2H)-one] returned a Ki on h-GABA-A α5β3γ2 [1] of 28.7 nM. Also, on h-GABA-A α5β3γ2 [2], the “Efficacy (GABA) %” value is 116% and the “Fold increase h-GABA-A α5β3γ2 oocyte” value turned out to be 2.16.
In the same order, the values of `Cc1ccc(-c2nocc2Cn2ncc(N3CCO[C@@H](C)C3)cc2=O)cn1` [Example 91, 5-[(2S)-2-methylmorpholin-4-yl]-2-[[3-(6-methyl-3-pyridyl)isoxazol-4-yl]methyl]pyridazin-3-one] are 21.7 nM, 157% and 2.57.
In the same order, the values of `Cc1ccc(-c2noc(C)c2Cn2ncc(N3CCN(C(=O)C4CC4)CC3)cc2=O)cn1` [Example 9, 5-(4-(cyclopropanecarbonyl)piperazin-1-yl)-2-((5-methyl-3-(6-methylpyridin-3-yl)isoxazol-4-yl)methyl)pyridazin-3(2H)-one] are 15.9 nM, 153% and 2.53.
For `CNc1cnn(Cc2c(-c3ccc(C)nc3)noc2C)c(=O)c1` [Example 78, 2-((5-methyl-3-(6-methylpyridin-3-yl)isoxazol-4-yl)methyl)-5-(methylamino)pyridazin-3(2H)-one] the same measures were 64.6 nM, 92% and 1.92.
On to `Cc1ccc(-c2noc(C)c2Cn2ncc(N3CCN(C4CC4)[C@H](C)C3)cc2=O)cn1` [Example 59, 5-[(3R)-4-cyclopropyl-3-methyl-piperazin-1-yl]-2-[[5-methyl-3-(6-methyl-3-pyridyl)isoxazol-4-yl]methyl]pyridazin-3-one], for which the inhibition constant (Ki) on h-GABA-A α5β3γ2 [1] worked out at 15.4 nM. Further, at h-GABA-A α5β3γ2 [2], the “Efficacy (GABA) %” value is 157% and the “Fold increase h-GABA-A α5β3γ2 oocyte” value came to 2.57.
For `Cc1ccc(-c2noc(C)c2Cn2ncc(N3CCN[C@H](C)C3)cc2=O)cn1` [Example 50, 2-[[5-methyl-3-(6-methyl-3-pyridyl)isoxazol-4-yl]methyl]-5-[(3R)-3-methylpiperazin-1-yl]pyridazin-3-one], the Ki at h-GABA-A α5β3γ2 [1] came to 2.8 nM. On h-GABA-A α5β3γ2 [2], the “Efficacy (GABA) %” value was 187% and the “Fold increase h-GABA-A α5β3γ2 oocyte” value stood at 2.87.
For `Cc1ccc(-c2noc(C)c2Cn2ncc(-c3ccccc3)cc2=O)cn1` [Example 67, 2-((5-methyl-3-(6-methylpyridin-3-yl)isoxazol-4-yl)methyl)-5-phenylpyridazin-3(2H)-one] the same measures were 10.5 nM, 107% and 2.07.
On h-GABA-A α5β3γ2 [1], `Cc1onc(-c2ccc(Cl)nc2)c1Cn1ncc(N2CC(OC(F)(F)F)C2)cc1=O` [Example 251, 2-((3-(6-chloropyridin-3-yl)-5-methylisoxazol-4-yl)methyl)-5-(3-(trifluoromethoxy)azetidin-1-yl)pyridazin-3(2H)-one] displayed a Ki of 16.6 nM. In addition, on h-GABA-A α5β3γ2 [2], the “Efficacy (GABA) %” value is listed as 83% and the “Fold increase h-GABA-A α5β3γ2 oocyte” value is 1.83.
For `Cc1ccc(-c2noc(C)c2Cn2ncc(-c3ccnc(OC(F)F)c3)cc2=O)cn1` [Example 175, 5-(2-(difluoromethoxy)pyridin-4-yl)-2-((5-methyl-3-(6-methylpyridin-3-yl)isoxazol-4-yl)methyl)pyridazin-3(2H)-one] the same measures were 6.6 nM, 86% and 1.86.
Turning to `COc1cc(-c2cnn(Cc3c(-c4ccc(Cl)nc4)noc3C)c(=O)c2)ccn1` [Example 214, 2-((3-(6-chloropyridin-3-yl)-5-methylisoxazol-4-yl)methyl)-5-(2-methoxypyridin-4-yl)pyridazin-3(2H)-one], the affinity at h-GABA-A α5β3γ2 [1] corresponds to a Ki of 8.3 nM. Also, at h-GABA-A α5β3γ2 [2], the “Efficacy (GABA) %” value is 74% and the “Fold increase h-GABA-A α5β3γ2 oocyte” value is reported as 1.74.
For `Cc1onc(-c2ccc(Cl)nc2)c1Cn1ncc(N2CCC3(CC2)COC3)cc1=O` [Example 258, 2-((3-(6-chloropyridin-3-yl)-5-methylisoxazol-4-yl)methyl)-5-(2-oxa-7-azaspiro[3.5]nonan-7-yl)pyridazin-3(2H)-one] the same measures were 34.3 nM, 126% and 2.26.
In turn, `Cc1ccc(-c2noc(C3CC3)c2Cn2ncc(N3CC4(CCCCO4)C3)cc2=O)nn1` [Example 259, 2-[[5-cyclopropyl-3-(6-methylpyridazin-3-yl)isoxazol-4-yl]methyl]-5-(5-oxa-2-azaspiro[3.5]nonan-2-yl)pyridazin-3-one] had a Ki on h-GABA-A α5β3γ2 [1] of 36.2 nM. For the same compound, on h-GABA-A α5β3γ2 [2], the “Efficacy (GABA) %” value worked out at 193% and the “Fold increase h-GABA-A α5β3γ2 oocyte” value was 2.93.
For `Cc1ncc(-c2noc(C)c2Cn2ncc(N(C)C)cc2=O)cc1F` [Example 102, 5-(dimethylamino)-2-[[3-(5-fluoro-6-methyl-3-pyridyl)-5-methyl-isoxazol-4-yl]methyl]pyridazin-3-one] the same measures were 13.1 nM, 86% and 1.86.
`Cc1onc(-c2ccc(C(F)(F)F)nc2)c1Cn1ncc(N2CCN(C(=O)C3(C)CC3)CC2)cc1=O` [Example 40, 5-[4-(1-methylcyclopropanecarbonyl)piperazin-1-yl]-2-[[5-methyl-3-[6-(trifluoromethyl)-3-pyridyl]isoxazol-4-yl]methyl]pyridazin-3-one] displayed an inhibitory constant (Ki) at h-GABA-A α5β3γ2 [1] of 43.3 nM. Also, on h-GABA-A α5β3γ2 [2], the “Efficacy (GABA) %” value came to 250% and the “Fold increase h-GABA-A α5β3γ2 oocyte” value turned out to be 3.5.
In the same order, the values of `Cc1ccc(-c2noc(C)c2Cn2ncc(NCC3CCOCC3)cc2=O)cn1` [Example 88, 2-((5-methyl-3-(6-methylpyridin-3-yl)isoxazol-4-yl)methyl)-5-(((tetrahydro-2H-pyran-4-yl)methyl)amino)pyridazin-3(2H)-one] are 33.4 nM, 103% and 2.03.
In the same order, the values of `CCc1nccn1C1CCN(c2cnn(Cc3c(-c4ccc(C)nc4)noc3C)c(=O)c2)CC1` [Example 109, 5-[4-(2-ethylimidazol-1-yl)-1-piperidyl]-2-[[5-methyl-3-(6-methyl-3-pyridyl)isoxazol-4-yl]methyl]pyridazin-3-one] are 2.2 nM, 107% and 2.07.
On to `Cc1ccc(-c2noc(C)c2Cn2ncc(N(C)C3COC3)cc2=O)cn1` [Example 65, 5-(methyl(oxetan-3-yl)amino)-2-((5-methyl-3-(6-methylpyridin-3-yl)isoxazol-4-yl)methyl)pyridazin-3(2H)-one], for which the Ki at h-GABA-A α5β3γ2 [1] was 4.7 nM. Also, at h-GABA-A α5β3γ2 [2], the “Efficacy (GABA) %” value was found to be 142% and the “Fold increase h-GABA-A α5β3γ2 oocyte” value is reported as 2.42.
For `Cc1cc(-c2noc(C)c2Cn2ncc(N3CC(OCC4CC4)C3)cc2=O)no1` [Example 141, 5-[3-(cyclopropylmethoxy)azetidin-1-yl]-2-[[5-methyl-3-(5-methylisoxazol-3-yl)isoxazol-4-yl]methyl]pyridazin-3-one] the same measures were 16 nM, 107% and 2.07.
In the same order, the values of `Cc1ccc(-c2noc(C)c2Cn2ncc(N3CCNCC3)cc2=O)cn1` [Example 75, 2-[[5-methyl-3-(6-methyl-3-pyridyl)isoxazol-4-yl]methyl]-5-piperazin-1-yl-pyridazin-3-one] are 3.6 nM, 104% and 2.04.
